Laboratory results reported in ChEMBL document CHEMBL1141614, “Selective COX-2 inhibitors. Part 2: synthesis and biological evaluation of 4-benzylideneamino- and 4-phenyliminomethyl-benzenesulfonamides” (Bioorg Med Chem, 2008).

Legend:
[1] = target: Prostaglandin G/H synthase 1 (Homo sapiens, UniProt P23219); format: tissue-based, Blood
Description: Inhibition of COX1 in human whole blood assessed as effect on A-23187-stimulated TxB2 production

[2] = target: T1, Prostaglandin G/H synthase 2 (Homo sapiens, UniProt P35354); experiment: Inhibition of COX2 in human whole blood assessed as effect on LPS-stimulated PGE2 production
T1 sequence (P35354 whole entry): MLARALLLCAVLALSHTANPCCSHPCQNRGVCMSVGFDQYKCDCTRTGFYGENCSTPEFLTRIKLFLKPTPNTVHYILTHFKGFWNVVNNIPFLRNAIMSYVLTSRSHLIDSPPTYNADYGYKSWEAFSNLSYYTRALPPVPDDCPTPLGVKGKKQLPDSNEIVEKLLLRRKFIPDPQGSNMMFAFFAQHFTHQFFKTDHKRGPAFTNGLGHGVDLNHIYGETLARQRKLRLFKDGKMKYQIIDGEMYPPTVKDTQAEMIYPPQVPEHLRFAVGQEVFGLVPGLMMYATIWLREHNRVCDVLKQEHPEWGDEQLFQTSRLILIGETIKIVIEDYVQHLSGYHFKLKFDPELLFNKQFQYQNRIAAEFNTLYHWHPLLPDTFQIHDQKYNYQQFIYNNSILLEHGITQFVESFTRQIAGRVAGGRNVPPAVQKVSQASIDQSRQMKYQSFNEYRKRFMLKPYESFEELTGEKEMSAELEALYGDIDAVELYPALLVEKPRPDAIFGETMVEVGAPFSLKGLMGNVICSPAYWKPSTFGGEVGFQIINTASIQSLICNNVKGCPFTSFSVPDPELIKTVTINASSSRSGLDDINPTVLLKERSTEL

Chain of Prostaglandin G/H synthase 1 (P23219 whole entry): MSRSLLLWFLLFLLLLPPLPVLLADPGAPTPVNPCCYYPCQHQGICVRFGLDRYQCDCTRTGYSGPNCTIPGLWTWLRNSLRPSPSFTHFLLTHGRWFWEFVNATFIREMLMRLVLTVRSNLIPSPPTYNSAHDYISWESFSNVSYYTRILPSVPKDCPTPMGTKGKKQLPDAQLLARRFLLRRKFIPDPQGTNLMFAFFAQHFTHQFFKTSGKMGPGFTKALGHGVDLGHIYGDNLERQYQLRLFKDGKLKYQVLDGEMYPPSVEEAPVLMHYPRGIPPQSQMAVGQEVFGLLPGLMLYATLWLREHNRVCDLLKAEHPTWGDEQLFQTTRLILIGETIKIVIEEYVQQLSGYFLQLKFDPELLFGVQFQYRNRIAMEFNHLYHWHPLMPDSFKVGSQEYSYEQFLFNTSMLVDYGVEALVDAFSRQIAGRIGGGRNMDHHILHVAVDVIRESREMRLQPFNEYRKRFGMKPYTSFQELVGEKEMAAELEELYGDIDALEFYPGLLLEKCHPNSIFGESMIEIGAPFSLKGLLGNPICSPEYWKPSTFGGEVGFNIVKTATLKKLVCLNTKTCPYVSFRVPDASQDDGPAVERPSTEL

Structure (SMILES) | IC50 [1] [µM] | IC50 [2] [µM]
COc1cc(/C=N/c2ccc(S(N)(=O)=O)cc2)cc(OC)c1 | 110 | 3.4
CN(C)c1ccc(/C=N/c2ccc(S(N)(=O)=O)cc2)cc1 | 196 | 3.36
COc1cc(/C=N/c2ccc(S(N)(=O)=O)cc2)cc(OC)c1OC | 167 | 2.93
NS(=O)(=O)c1ccc(/N=C/c2ccc(O)cc2)cc1 | 148 | 3.42
COc1ccc(/C=N/c2ccc(S(N)(=O)=O)cc2)cc1OC | 110 | 3.09
COC(=O)c1ccc(/C=N/c2ccc(S(N)(=O)=O)cc2)cc1 | 184 | 2.73
COc1cccc(/C=N/c2ccc(S(N)(=O)=O)cc2)c1 | 383 | 5.45
NS(=O)(=O)c1ccc(/N=C/c2ccccc2)cc1 | 108 | 2.87
COc1ccc(/C=N/c2ccc(S(N)(=O)=O)cc2)cc1 | 314 | 9.88
NS(=O)(=O)c1ccc(/N=C/c2ccc([N+](=O)[O-])cc2)cc1 | 141 | 3
COc1cc(/C=N/c2ccc(S(N)(=O)=O)cc2)cc(OC)c1O | 156 | 2.71
NS(=O)(=O)c1ccc(/N=C/c2cccc([N+](=O)[O-])c2)cc1 | 106 | 6.75
Cc1ccc(/C=N/c2ccc(S(N)(=O)=O)cc2)cc1 | 190 | 4.94
NS(=O)(=O)c1ccc(/N=C/c2ccc(F)cc2)cc1 | 159 | 2.22
NS(=O)(=O)c1ccc(/N=C/c2ccc(C(F)(F)F)cc2)cc1 | 182 | 4.6
NS(=O)(=O)c1ccc(/N=C/c2ccc(O)c(C(=O)O)c2)cc1 | 85.1 | 0.74

These reach a lower IC50 [1]. Values come first.

IC50 [1] [µM] | IC50 [2] [µM] | Structure (SMILES)
80.2 | 4.38 | NS(=O)(=O)c1ccc(/C=N/c2ccc(F)cc2)cc1
60.7 | 4.14 | COc1ccc(/N=C/c2ccc(S(N)(=O)=O)cc2)cc1
51.8 | 5.09 | NS(=O)(=O)c1ccc(/C=N/c2ccc(O)cc2)cc1
23.2 | 2.85 | NS(=O)(=O)c1ccc(/N=C/c2ccc(O)c(O)c2)cc1
43.8 | 3.5 | COc1ccc(/C=N/c2ccc(S(N)(=O)=O)cc2)cc1O
63.2 | 4.62 | Cc1ccc(/N=C/c2ccc(S(N)(=O)=O)cc2)cc1
78.2 | 2.95 | COc1cc(/C=N/c2ccc(S(N)(=O)=O)cc2)ccc1O
43.9 | 6.54 | NS(=O)(=O)c1ccc(/C=N/c2ccc(C(F)(F)F)cc2)cc1
31.3 | 4.28 | COc1ccc(/N=C/c2ccc(S(N)(=O)=O)cc2)cc1OC
63.6 | 3.11 | NS(=O)(=O)c1ccc(/C=N/c2ccccc2)cc1
38.2 | 2.78 | NS(=O)(=O)c1ccc(/N=C/c2cccc(O)c2)cc1
47.9 | 3.69 | CCOc1cc(/C=N/c2ccc(S(N)(=O)=O)cc2)ccc1O
24 | 3.13 | COC(=O)c1cc(/N=C/c2ccc(S(N)(=O)=O)cc2)ccc1O
56.7 | 3.72 | COC(=O)c1ccc(/N=C/c2ccc(S(N)(=O)=O)cc2)cc1
64.4 | 1.95 | CN(C)c1ccc(/N=C/c2ccc(S(N)(=O)=O)cc2)cc1
